Experimental data: patent US20090215036A1, “Genetic Alterations Useful For The Response Prediction of Malignant Neoplasia to Taxane-Based Medical Treatments” (Bayer HealthCare AG, priority 2004, published 2009)

Columns and labels:
breast cancer patients [1] = test: Kaplan-Meier disease free survival of the two therapy arms (E-T-CMF vs. E-CMF) in respect to gene amplifications
Experimental: These samples were formalin-fixed and paraffin-embedded material from primary tumours. A detailed clinical report about all patients was available. The anonymized data included all medical, therapeutical, clinical, histo- and pathological, and follow-up information incl. relapse or survival time.
More than 60 genes were analyzed according to the method disclosed in examples 1 and 2 by quantitative PCR after nucleic acid extraction from formaldehyde-fixed, paraffin-embedded tissue slides. Alterations of the analyzed genes were determined by comparison with at least two reference genes. Reference genes included mainly MMP28 and HNRPDL, but also HBB, B2M, SOD2. […] The reference genes should be independent from the ARCHEON alterations occurring in the neoplastic lesions and should not be affected by chromosomal alterations such as amplifications and deletions. […] By measuring genes located on the X-chromosome (e.g. SRY), the Y-chromosome (e.g. Xist) and on chromosome 21, defined copy numbers of 1, 2 and 3 genes could be determined as internal control during each run for standardization. […] The calculated performance differences were used as a filter for the measurements within the target tissues, i.e. primer/probe differences of each individual gene as depicted in the control cells and tissues were subtracted from each individual gene measurement performed in the target tissue. […]

breast cancer patients [2] = test: Bivariate DNA and/or RNA marker combinations, +Taxol arm vs. -Taxol arm, quadrant analysis with Kaplan-Meier plots; conditions: GR3 + 4

Compound: CC(=O)O[C@H]1C(=O)[C@@]2(C)[C@H]([C@H](OC(=O)c3ccccc3)[C@]3(O)C[C@H](OC(=O)[C@H](O)[C@@H](NC(=O)c4ccccc4)c4ccccc4)C(C)=C1C3(C)C)[C@]1(OC(C)=O)CO[C@@H]1C[C@@H]2O [Taxol]
- outcome of Taxol therapy in patients with gene amplification (breast cancer patients [1]; FIGS. 2a-c, ErbB4 and VEGF amplified, alone or as a marker set of two genes): benefit from Taxol therapy
- correlation of gene amplification to Taxol resistance (breast cancer patients [1]; TRAG3 amplification): no strong correlation
- Benefit (breast cancer patients [2]; ABCG2_R thr 11.0 / SIVA_D thr 1.3, Quadrant LH): OUT: Always beneficial
- Benefit (breast cancer patients [2]; AFP_R thr −2.2 / EMS1_R thr 18.9, Quadrant HL): OUT: Taxol beneficial
- Benefit (breast cancer patients [2]; AFP_R thr −2.2 / FLT1_D thr 3.3, Quadrant HL): OUT: Taxol beneficial
- Benefit (breast cancer patients [2]; AFP_R thr −2.2 / TRAG3_D thr 1.2, Quadrant HH): OUT: Taxol beneficial
- Benefit (breast cancer patients [2]; AFP_R thr −2.2 / TWIST1_D thr 1.1, Quadrant HH): OUT: Taxol beneficial
- Benefit (breast cancer patients [2]; AFP_R thr −2.5 / ISGF3G_D thr 3.7, Quadrant HL): OUT: Taxol beneficial
- Benefit (breast cancer patients [2]; BUB3_D thr 2.0 / MST1_D thr 2.1, Quadrant HH): OUT: Always beneficial
- Benefit (breast cancer patients [2]; CCNE2_R thr 13.4 / MST1_D thr 2.0, Quadrant LL): IN: Always beneficial
- Benefit (breast cancer patients [2]; CIDEB_R thr 13.7 / ERBB3_R thr 14.7, Quadrant LH): IN: Taxol beneficial
- Benefit (breast cancer patients [2]; CIDEB_R thr 13.7 / RIN1_D thr 2.1, Quadrant LL): IN: Taxol beneficial
- Benefit (breast cancer patients [2]; EMS1_R thr 15.9 / RIN1_D thr 2.1, Quadrant HL): IN: Taxol beneficial
- Benefit (breast cancer patients [2]; EMS1_R thr 16.9 / ERBB3_R thr 14.7, Quadrant HH): IN: Taxol beneficial
- Benefit (breast cancer patients [2]; ERBB3_R thr 14.7 / BRMS1_D thr 4.6, Quadrant HL): IN: Taxol beneficial
- Benefit (breast cancer patients [2]; ERBB3_R thr 14.7 / MUC1_D thr 2.6, Quadrant HL): IN: Taxol beneficial
- Benefit (breast cancer patients [2]; ERBB3_R thr 14.7 / VEGF_D thr 3.9, Quadrant HL): IN: Taxol beneficial
- Benefit (breast cancer patients [2]; ESR1_R thr 12.3 / CA9_R thr 1.4, Quadrant HH): OUT: Taxol beneficial
- Benefit (breast cancer patients [2]; FNTA_R thr 11.9 / ERBB2_D thr 1.8, Quadrant HH): OUT: Always beneficial
- Benefit (breast cancer patients [2]; FolR2_D thr 2.9 / VEGF_D thr 2.6, Quadrant HL): IN: Taxol beneficial
- Benefit (breast cancer patients [2]; GSTP1_D thr 2.2 / ING1L_D thr 1.6, Quadrant LH): OUT: Always beneficial
- Benefit (breast cancer patients [2]; GSTP1_D thr 2.4 / MST1_D thr 2.1, Quadrant LH): OUT: Always beneficial
- Benefit (breast cancer patients [2]; KISS I_D thr 1.3 / ERBB2_D thr 1.8, Quadrant HH): OUT: Always beneficial
- Benefit (breast cancer patients [2]; MYC2_D thr 2.1 / ERBB3_R thr 14.4, Quadrant HH): IN: Taxol beneficial
- Benefit (breast cancer patients [2]; MYC2_D thr 2.2 / CASP10_D thr 2.2, Quadrant HL): IN: Taxol beneficial
- Benefit (breast cancer patients [2]; PGR_R thr 9.1 / RIN1_D thr 2.1, Quadrant HL): IN: Taxol beneficial
- Benefit (breast cancer patients [2]; PGR_R thr 14.3 / ERBB3_R thr 14.7, Quadrant LH): IN: Taxol beneficial
- Benefit (breast cancer patients [2]; PVT1_D thr 1.3 / RIN1_D thr 2.1, Quadrant HL): IN: Taxol beneficial
- Benefit (breast cancer patients [2]; RAD54B_D thr 1.2 / ERBB2_D thr 1.8, Quadrant HH): OUT: Always beneficial
- Benefit (breast cancer patients [2]; RIN1_D thr 2.1 / EMS1_D thr 1.2, Quadrant LH): IN: Taxol beneficial
- Benefit (breast cancer patients [2]; RIN1_D thr 2.1 / VEGF_D thr 1.5, Quadrant LH): IN: Taxol beneficial
- Benefit (breast cancer patients [2]; STAU_R thr 17.6 / FLT1_R thr 3.5, Quadrant LL): OUT: Taxol beneficial
- Benefit (breast cancer patients [2]; TONDO_R thr 12.2 / ErbB4_D thr 2.2, Quadrant LH): IN: Taxol beneficial
- Benefit (breast cancer patients [2]; VEGFa_R thr 13.0 / BOP1_D thr 2.0, Quadrant HH): OUT: Always beneficial
- Benefit (breast cancer patients [2]; VEGFa_R thr 14.1 / AFP_R thr −1.0, Quadrant LH): IN: Always beneficial
